Here are results for three molecules from article PMC5028181 (PLoS ONE, 2016).

Each structure is given as a SMILES string.

In general, Km refers to the substrate concentration at which the rate is half of its maximum.

This assay relates to T1, BmObc1 (oxalate biosynthetic component 1; His-BmObc1).
T1 construct: gene obc1
The class given is biochemical, Burkholderia mallei.
Take `CC(=O)SCCNC(=O)CCNC(=O)[C@H](O)C(C)(C)COP(=O)(O)OP(=O)(O)OC[C@H]1O[C@@H](n2cnc3c(N)ncnc32)[C@H](O)[C@@H]1OP(=O)(O)O` [acetyl-CoA]: the Michaelis constant (Km) worked out at 26.8 ± 2.3 µM.
For `O=C(O)CC(=O)C(=O)O` [oxaloacetate], the Michaelis-Menten constant (Km) was determined as 94.3 ± 9.2 µM.
Consider `CCC(=O)SCCNC(=O)CCNC(=O)[C@H](O)C(C)(C)COP(=O)(O)OP(=O)(O)OC[C@H]1O[C@@H](n2cnc3c(N)ncnc32)[C@H](O)[C@@H]1OP(=O)(O)O` [propionyl-CoA], for which the Km is 104 ± 12.7 µM.
